Reference: patent US20230285417A1, “FORMULATIONS OF 19-NOR C3,3-DISUBSTITUTED C21-N-PYRAZOLYL STEROID AND METHODS OF USE THEREOF” (priority 2020, published 2023)

What was measured:
Assay type in all cases: physicochemical
[1] = Particle size distribution by laser diffraction (Malvern Mastersizer 2000); conditions: for D10 / D50 / D90: lot of micronized Form C of Compound 1 used in capsules of Table 16
Experimental: The particle size distribution of Compound 1 was measured using a laser diffraction method. A sample of Compound 1 was either dispersed in water or wetted and dispersed in 0.2% w/v Tween 80 in water to a final concentration spanning approximately 2.5 to 60 mg/mL. Using a Malvern Mastersizer 2000 with a Hydro 2000S sample dispersion unit the obscuration was adjusted to between 10 and 30%. The stir speed was adjusted to 2250-2500 rpm, pre-measurement delay to approximately 30 s, sample measurement time to around 10-15 s, background measurement time to around 10-15 s and the particle shape assumed to be irregular. The samples were at a concentration between 0.0032-0.0044% vol and had specific surface area between 1.65 and 2.10 m2/g, a surface weighted mean between 2.87 and 3.64 μm, and a volume weighed mean between 3.62 and 4.67 μm. The measurements were obtained using the Mie scattering model (material refractive index=1.520, dispersant refractive index=1.330, absorption=0.001 or 0.1) with normal sensitivity.
Representative particle size distribution data for lots of un-micronized and micronized Form C of Compound 1 are shown in Table 7. In addition, representative particle size distribution for micronized Form A of Compound 1 is also included in Table 7. FIG. 4A, FIG. 4B and FIG. 4C also contain particle size distribution profiles for three representative lots of micronized Form C of Compound 1. FIG. 13A and FIG. 13B contain particle size distribution profiles for micronized and un-micronized Form C of Compound 1a. FIG. 14A and FIG. 14B contain particle size distribution profiles for micronized and un-micronized Form C of Compound 1b. FIG. 15A and FIG. 15B contain particle size distribution profiles for micronized and un-micronized Form C of Compound 1c. FIG. 16A and FIG. 16B contain particle size distribution profiles for micronized and un-micronized Form C of Compound 1d.

[2] = Biopharmaceutics Classification System (BCS) classification; conditions: high permeability, poor solubility
Source text: (§1) The compound of formula (I) belongs in the high permeability, poor solubility drug classification (BCS 2) described in the Biopharmaceutics Classification System (BCS). In the improved widely accepted Developability Classification System (DCS) discussed by Butler and Dressman, the high permeability low solubility category is further divided into two classifications. Specifically, the ratio of the dose to the solubility of the drug in FaSSIF can be used to predict the extent of human absorption. Class 2a describes compounds that have good permeability and poor solubility with a smaller dose to solubility ratio. Class 2b describes compounds that have a higher dose to solubility ratio and likely will be incompletely absorbed unless the drug is formulated in an already solubilized form, and therefore might present a major challenge to the formulator. […] That is, even for a dose of 10 mg about only 1.2% of the dose of the drug may dissolve in a glass of water or FaSSIF. For Class 2b compounds the system predicts that particle reduction should have no impact on bioavailability. Martinez and Amidon offer: “In the case of solubility-limited absorption particle size exerts minimal effect on the fraction of drug absorbed. […]

[3] = Solubility of the compound of formula (I) in aqueous media (water, pH 1.2 simulated gastric fluid, FaSSIF)
Source text: as §1

[4] = lot used in Composition 30, 8 kg blend batch, 20 mg dose strength
[5] = lot used in Composition 30, 12 kg blend batch, 30 mg dose strength
[6] = lot used in Composition 30, 34.7 kg blend batch, 20 mg dose strength
[7] = lot used in Composition 30, 52 kg blend batch, 30 mg dose strength

Question: For `C[C@@]1(O)CC[C@H]2[C@H](CC[C@@H]3[C@@H]2CC[C@]2(C)[C@@H](C(=O)Cn4cc(C#N)cn4)CC[C@@H]32)C1` [Lot B], which D10 ([1]; listed as B) is on record?
Answer: 1.9 μm

Question: What about the D50 ([1]; listed as B) of the same compound?
Answer: 3.5 μm

Question: What about the D90 ([1]; listed as B) of the same compound?
Answer: 6.6 μm

Question: Which results are given for `C[C@@]1(O)CC[C@H]2[C@H](CC[C@@H]3[C@@H]2CC[C@]2(C)[C@@H](C(=O)Cn4cc(C#N)cn4)CC[C@@H]32)C1` [Compound 1, 1-(2-((3R,5R,8R,9R,10S,13S,14S,17S)-3-hydroxy-3,13-dimethylhexadecahydro-1H-cyclopenta[a]phenanthren-17-yl)-2-oxoethyl)-1H-pyrazole-4-carbonitrile]?
Answer: drug classification, Biopharmaceutics Classification System (BCS) [2]: BCS 2; % of the dose that may dissolve in a glass of water or FaSSIF ([3]; 10 mg dose): ~1.2%; solubility in aqueous media ([3]; water, pH 1.2 simulated gastric fluid, FaSSIF): practically insoluble

Question: What does the source list for `C[C@@]1(O)CC[C@H]2[C@H](CC[C@@H]3[C@@H]2CC[C@]2(C)[C@@H](C(=O)Cn4cc(C#N)cn4)CC[C@@H]32)C1` [Lot A]?
Answer: D10 ([1]; listed as A): 1.7 μm; D50 ([1]; listed as A): 3.3 μm; D90 ([1]; listed as A): 6.8 μm

Question: With `C[C@@]1(O)CC[C@H]2[C@H](CC[C@@H]3[C@@H]2CC[C@]2(C)[C@@H](C(=O)Cn4cc(C#N)cn4)CC[C@@H]32)C1` [Micronized Form C of Compound 1] as the compound, how does the “Particle Size Distribution D10” value [1, 4] read?
Answer: 1.7

Question: What about the “Particle Size Distribution D50” value [1, 4] of the same compound?
Answer: 3.2

Question: And the “Particle Size Distribution D90” value [1, 4]?
Answer: 6.1

Question: What about the “Particle Size Distribution D10” value [1, 5] of the same compound?
Answer: 1.7

Question: And the “Particle Size Distribution D50” value [1, 5]?
Answer: 3.2

Question: What about the “Particle Size Distribution D90” value [1, 5] of the same compound?
Answer: 6.1

Question: What about the “Particle Size Distribution D10” value [1, 6] of the same compound?
Answer: 1.8

Question: And the “Particle Size Distribution D50” value [1, 6]?
Answer: 3.3

Question: And the “Particle Size Distribution D90” value [1, 6]?
Answer: 6.5

Question: And the “Particle Size Distribution D10” value [1, 7]?
Answer: 2.1

Question: What about the “Particle Size Distribution D50” value [1, 7] of the same compound?
Answer: 4.1

Question: What about the “Particle Size Distribution D90” value [1, 7] of the same compound?
Answer: 8.0

Question: Which D10 ([1]; listed as C) does the source give for `C[C@@]1(O)CC[C@H]2[C@H](CC[C@@H]3[C@@H]2CC[C@]2(C)[C@@H](C(=O)Cn4cc(C#N)cn4)CC[C@@H]32)C1` [Lot C] here?
Answer: 2.1 μm

Question: What about the D50 ([1]; listed as C) of the same compound?
Answer: 4.0 μm

Question: What about the D90 ([1]; listed as C) of the same compound?
Answer: 7.7 μm
